Reference: patent US20250302982A1, “METHODS OF TREATING CANCER WITH ANTI-TISSUE FACTOR ANTIBODY-DRUG CONJUGATES” (Genmab A/S, priority 2022, published 2025)
Entries after “also recorded” stand apart in the source; their conditions may differ. Marks after values point to notes of the source that are not given here.

Tests used:
[1] = molecular target: T1, human TF (Homo sapiens, UniProt P13726); test: Tisotumab binding to HNSCC cell lines by flow cytometry; conditions: 2 μg/ml
T1 construct: Three VU-SCC cells lines with various levels of TF expression were selected for additional analysis; endogenous in cells; host or cells: HNSCC cell lines VU-SCC-OE, VU-SCC-078, VU-SCC-120
Protocol: Methods: Three VU-SCC cells lines with various levels of TF expression were selected for additional analysis. It was determined that VU-SCC-OE had TF expression levels similar to that of non-cancerous fibroblasts and VU-SCC-078 had slightly higher expression levels of TF compared to VU-SCC-OE; VU-SCC-120 was a cell line with high levels of TF expression (FIG. 2). These three cell lines were cultured and subsequently assayed for tisotumab binding. Cells were incubated with the anti-human TF monoclonal antibody, (tisotumab, 2 μg/ml, IgG1-1015-011, Genmab) or an isotype control IgG (Genmab IgG1-b12). The PE-conjugated goat (Fab′)2 anti-human IgG secondary antibody (1:50 Jackson, 109-116-098) was applied and the cells were analyzed by flow cytometry.

[2] = tested on: HNSCC cell lines; test: Cell Titer-Blue cytotoxicity assay in HNSCC cell lines; format: cell-based, human
Protocol: Methods: Cells were seeded in 96-wells plates on day 0 (1000-6000 cells/well, depending on the cell line). After overnight culturing, tisotumab vedotin or the negative control isotype IgG1-vedotin (IgG1-c-b12-vc monomethyl auristatin E (MMAE)) was added in increasing concentrations to the different wells. The relative number of viable cells was assessed on day 5 using a Cell Titer-Blue assay (Promega, Leiden, The Netherlands, G8080) according to the protocol from the manufacturer and fluorescence was measured using the GloMax®-Multi Detection System (Promega). Staurosporine (5 μM, Sigma, UCN-01 or 56942) was used as a positive control to induce maximum cell death, and untreated cells were also used as a negative control. After subtraction of background (medium only), the percentages of viable cells were calculated using the following formula: % viable cells=((mean fluorescence test samples−mean fluorescence staurosporine sample)/(mean fluorescence untreated sample−mean fluorescence staurosporine sample))*100. Graphs represent non-linear regression curves of log-transformed antibody concentrations, using Graphpad Prism version 9.1.0 (GraphPad Software, San Diego, CA).

[3] = tested on: primary keratinocytes; test: Cell Titer-Blue cytotoxicity assay in primary keratinocytes; format: cell-based, human; conditions: low TF expression
Protocol: Keratinocytes were cultured in serum-free Keratinocyte medium (KSFM, Gibco, 17005-034) supplemented with 0.1% bovine serum albumin (BSA, Biovision), recombinant epidermal growth factor (EGF) (Gibco, 10450-013) and bovine pituitary extract (Gibco, 13028-014). HNSCC cell lines were cultured in Dulbecco's Modified Eagle's Medium (DMEM), containing 5% fetal bovine serum (FBS, Gibco, 10270-106) and 2 mM L-glutamine (Lonza, BE-17-605E). The FaDu cell line was purchased from the ATCC. […]
Methods: Cells were seeded in 96-wells plates on day 0 (1000-6000 cells/well, depending on the cell line). […] The relative number of viable cells was assessed on day 5 using a Cell Titer-Blue assay (Promega, Leiden, The Netherlands, G8080) according to the protocol from the manufacturer and fluorescence was measured using the GloMax®-Multi Detection System (Promega). […] After subtraction of background (medium only), the percentages of viable cells were calculated using the following formula: % viable cells=((mean fluorescence test samples−mean fluorescence staurosporine sample)/(mean fluorescence untreated sample−mean fluorescence staurosporine sample))*100. […]

[4] = tested on: FaDu tumor; test: TV monotherapy in FaDu xenograft mice; format: in vivo, nude mice
Protocol: (§1) Nude mice (female, athymic nu/nu, age 6-8 weeks old, from Envigo, Horst, The Netherlands), were kept in filter top cages under sterile conditions under standardized environmental conditions. The HNSCC cell lines FaDu, VU-SCC-OE or VU-SCC-040 were subcutaneously injected in both flanks (2×10^6 cells per flank). The implanted tumor cells were allowed to grow to an average size of 100 mm^3 (range 40-180 mm^3). The mice were treated intraperitoneally (ip) with tisotumab vedotin or an isotype control (IgG1-b12-c-vcMMAE) (FIG. 6). […] Tumor volume was measured with electronic calipers (V=(L×W×H)×0.5 where V=volume, L=length, W=width, H=height) and calculated as mean of tumor(s) per mouse. Tumors with a start volume below 40 mm^3 and no signs of growth were excluded from the analysis. Tumors from un-treated tumor bearing mice were harvested and embedded in paraffin for analysis of TF expression using IHC analysis as described in the preceding examples. TF expression was detected using anti-CD142-FITC or isotype control (IgG1-FITC) with rabbit anti-FITC (Zymed) and BrightVision Immunohistochemistry (IHC) Detection Kit and visualized with DAB counterstained with Haematoxylin.
(§2) Nude mice were injected with HNSCC cells and xenografts were established as described above in Example 3A. Xenograft mice (5 mice with 8-10 tumors per group) were treated with PBS, 2 and 4 mg/kg tisotumab vedotin, or 4 mg/kg isotype IgG1-vedotin on days 0, 7 and 13 (FaDu) or on days 0, 7 and 14 (VU-SCC-OE and VU-SCC-040) (FIG. 6). Tumor volume was measured as described in the preceding example. Data analysis was performed using Graph Pad Prism version 9.1.0 (GraphPad Software, San Diego, CA). Data are depicted as mean±SD or mean±SEM. Statistical differences were determined using a Kruskal-Wallis test with multiple comparison tests (>2 groups). Improved overall survival was assessed using the Kaplan-Meier method and differences between the groups was assessed by the Log-rank test (Mantel-Cox). p-values<0.05 were considered significant (*p<0.05, **p<0.01,***p<0.001, **** p<0.0001, ns=not significant).

[5] = tested on: VU-SCC-OE tumor; test: TV monotherapy in VU-SCC-OE xenograft mice; format: in vivo, nude mice; conditions: days 0, 7, 14
Protocol: as §1
as §2, with “Xenograft mice (5 mice with 8-10 tumors per group) were treated with PBS, 2 and 4 mg/kg tisotumab vedotin, or 4 mg/kg isotype IgG1-vedotin on days 0, 7 and 13 (FaDu) or on days 0, 7 and 14 (VU-SCC-OE and VU-SCC-040) (FIG. 6).” left out

[6] = tested on: VU-SCC-040 tumor; test: TV monotherapy in VU-SCC-040 xenograft mice; format: in vivo, nude mice
Protocol: as §1
as §2, with “Xenograft mice (5 mice with 8-10 tumors per group) were treated with PBS, 2 and 4 mg/kg tisotumab vedotin, or 4 mg/kg isotype IgG1-vedotin on days 0, 7 and 13 (FaDu) or on days 0, 7 and 14 (VU-SCC-OE and VU-SCC-040) (FIG. 6).” left out

[7] = tested on: FaDu xenograft; test: TV combined with chemoradiotherapy (CRT) in FaDu xenograft mice; format: in vivo, nude mice
Protocol: (§3) Methods: FaDu xenografts were established in nude mice (5-6 mice/group) as described above in Example 3.
(§4) FaDu xenograft mice were treated 24 hour hours prior to CRT (CRT was administered on day 1 and 11) with TV or the isotype control, which was administered on day 0 and 10. VU-SCC-OE xenograft mice were treated 24 hour hours prior to CRT (CRT was administered on day 1 and 8) with TV or the isotype (IgG1-vedotin) control, which was administered on day 0 and 7. For mice receiving CRT, whole body irradiation (2 Gy; Varian TrueBeam™ Linear Accelerator) was applied approximately 4 hours after administering cisplatin (CDDP, 3 mg/kg). Tumor volume was measured as described above, and statistical analysis was performed on the collected data as also described above.

[8] = tested on: VU-SCC-OE xenograft; test: TV combined with chemoradiotherapy (CRT) in VU-SCC-OE xenograft mice; format: in vivo, nude mice
Protocol: as §3, §4

[9] = tested on: FaDu xenograft; test: TV combined with radiotherapy (RT) in FaDu xenograft mice; format: in vivo, nude mice; conditions: for Median survival [days]: end of experiment day 112; for Range Survival [days]: end of the experiment is day 112
Protocol: FaDu xenografts were established in nude mice as described in Example 3. […] For mice subjected to RT, 2 Gy whole body radiotherapy was administered at day 1.

[10] = tested on: FaDu xenograft; test: TV combined with cisplatin (CDDP) in FaDu xenograft mice; conditions: 2 mg/kg TV + cisplatin 3 mg/kg ip
Protocol: FaDu xenografts were established in nude mice (6-7 mice/group) as described above in Example 4. Mice were treated with the antibodies on day 0 and 7 and/or on day 1 and 8 with 3 mg/kg intraperitoneal cisplatin (CDDP) chemotherapy (CT) (FIG. 6). TV or control IgG-vedotin (IgG1-V) was administered at day 0. For mice subjected to chemotherapy, cisplatin was administered at day 1. A minimum of 8 tumors were included per group.

T1 sequence (P13726 33-295): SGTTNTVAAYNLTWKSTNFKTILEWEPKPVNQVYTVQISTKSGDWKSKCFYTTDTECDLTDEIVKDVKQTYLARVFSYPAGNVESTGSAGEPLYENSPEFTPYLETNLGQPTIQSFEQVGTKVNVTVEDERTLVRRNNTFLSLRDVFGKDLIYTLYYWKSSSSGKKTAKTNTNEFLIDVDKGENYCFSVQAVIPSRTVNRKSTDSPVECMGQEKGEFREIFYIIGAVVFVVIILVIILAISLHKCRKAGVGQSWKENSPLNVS

## tisotumab
[1]; VU-SCC-078, intermediate expression of TF
  binding to HNSCC cells (flow cytometry): bound robustly
[1]; VU-SCC-120, high levels of TF
  binding to HNSCC cells (flow cytometry): bound robustly
[1]; VU-SCC-OE, lower levels of TF expression
  binding to HNSCC cells (flow cytometry): still capable of binding

## tisotumab vedotin
[2]; HNSCC cell lines with intermediate and high levels of TF expression
  mean IC50 values: 2.5 to 7 ng/mL
[2]; VU-SCC-OE, low TF expression
  average IC50: above 0.025 μg/ml
[2]; increasing concentrations, viable cells on day 5
  killing of HNSCC cell lines (percent viable cells): efficient and dose-dependent killing
[3]
  average IC50: above 0.025 μg/ml
[4]; 2 mg/kg ip, days 0, 7, 13
  tumor growth compared to control groups: significant inhibition of tumor growth
  tumor regression: tumor regression was observed after 3 treatments
[4]; 2 mg/kg, last treatment on day 13
  time after start of initial treatment from which tumor regrowth was visible: ≥ 30 days
[4]; 4 mg/kg ip, after the first treatment
  tumor regression: significant and persistent tumor regression
[4]; 4 mg/kg ip, days 0, 7, 13
  recurrence of tumor growth until end of experiment (day 76): without recurrence of tumor growth
  time to complete tumor regression in all mice: ≤ 30 days
[4]; tisotumab vedotin treatment groups, day 7
  tumor size on day 7 compared to isotype control or PBS: considerably lower tumor size
[5]; 1 mg/kg
  tumor growth: rapid tumor growth
[5]; 2 mg/kg
  tumor growth: inhibition of tumor growth
[5]; 4 mg/kg TV
  tumor growth: inhibition of tumor growth
[6]; 1 mg/kg monotherapy
  tumor growth compared to control groups: did not inhibit tumor growth
[6]; 2 mg/kg
  tumor growth compared to control groups: inhibition of tumor growth was observed
[6]; 4 mg/kg
  tumor growth compared to control groups: inhibition of tumor growth was observed
[6]; 4 mg/kg, after 1 treatment
  tumor growth at day 7 compared to isotype control: reduced tumor growth
[7]; 2 mg/kg TV + CRT
  overall survival (Kaplan-Meier) compared to control groups, CRT or TV alone: significant increase in overall survival
  tumor size at day 9 after first treatment compared to IgG1-vedotin + CRT: significant reduction in tumor size
[7]; 2 mg/kg TV alone, day 0 and 10
  tumor growth compared to IgG1-vedotin control group: reduced tumor growth
[8]; 2 mg/kg TV + CRT
  survival compared to control groups or CRT or TV alone: significantly prolonged survival
  tumor regression: induced tumor regression
[8]; 2 mg/kg TV alone
  tumor growth compared to control groups (PBS and IgG1-vedotin): some inhibition of tumor growth
[9]; 1 mg/kg TV alone
  survival compared to control treatment (PBS or IgG-V): did not prolong survival
[9]; 2 mg/kg TV + RT, p<0.001
  survival time compared to RT alone: significantly better survival time
[9]; TV 1 mg/kg day 0 + RT 2 Gy day 1
  tumor volume on day 7: Decreased tumor volume
[9]; TV 2 mg/kg alone, day 0
  tumor burden on day 7: lowest tumor burdens
[9]; TV 2 mg/kg day 0 + RT 2 Gy day 1, listed as TV
  tumor burden / tumor volume on day 7: lowest tumor burdens; also recorded: Decreased tumor volume
[9]; hTV 1 mg/kg
  Median survival: 10 days
  Range Survival: 8 to 16 days
[9]; hTV 1 mg/kg + RT (2 Gy)
  Median survival: 21 days
  Range Survival: 14 to 21 days
[9]; hTV 2 mg/kg
  Median survival: 69.5 days
  Range Survival [days]: 28-112* days
[9]; hTV 2 mg/kg + RT (2 Gy), listed as TV
  Median survival [days]: median not reached
[9]; hTV 2 mg/kg + RT (2 Gy), listed as hTV
  Median survival [days]: Undefined
[9]; hTV 2 mg/kg + RT (2 Gy)
  Range Survival [days]: 21-112* days
[10]
  survival compared to either treatment alone: improved survival
  tumor load on day 7 compared to either treatment alone: significantly reduced tumor load
